Values after ≈ are worked out from the molar mass of the structure shown.

Assay [1] has as its system TNF-α release from LPS-stimulated whole rat blood. In words: Inhibition of LPS-induced TNF-α release in whole rat blood. Particulars: LPS 10 mg L^−1, 6 h incubation, compared to LPS-treated control. The assay is classed as cell-based. As to the method: Stimulation of whole rat blood by LPS was performed on 96-well plates. […] Contents of each well (200 μL) consisted of heparinized rat blood containing 10 U heparin mL^−1 diluted with RPMI-1640 medium at a ratio of 1:1 (v/v). All compounds were dissolved in DMSO and added to blood (the final DMSO concentration in blood was 0.5%) 15 min prior to the addition of LPS dissolved in RPMI-1640 medium to achieve the LPS concentration of 10 mg L^−1. Both, LPS and DMSO were also added to control wells at the same concentrations. Additional control samples (for testing baseline TNF-α levels in blood) consisted of DMSO (0.5%) without LPS. The incubation was performed at 37°C in a humidified atmosphere of 5% CO2 in an MCO-5 AC-PE incubator (PHCbi, Japan). After 6 h of incubation, the plates were centrifuged for 10 min using PlateFuge MicroCentrifuge (Benchmark Scientific, USA). The individual plasma samples were harvested and stored at −80°C until analysis.
(§1) TNF-α levels in LPS-stimulated rat blood in vitro and in rat plasma samples from the in vivo studies were analyzed by the Rat TNF-α Quantikine ELISA Immunoassay Kit (R&D Systems, USA) according to the manufacturer’s instructions. The assay was linear at the range of 12.5–800 pg mL^−1. Levels of TNF-α in mice serum were measured by ELISA Kits for Tumor Necrosis Factor Alpha (Cloud-Clone Corp., USA). This assay was linear at the range of 15.6–1000 pg mL^−1. Absorbance was measured at 450 nm using a POLARstar Omega multi-mode microplate reader (BMG LABTECH, Germany).

The test system of assay [2] is TNF-α plasma levels in male Wistar rats with LPS-induced endotoxemia. Briefly: LPS-induced endotoxemia in rats, PK/PD model of plasma TNF-α. The assay is classed as in vivo, rat. As to the method:
Male Wistar rats were implanted with catheters (SAI Infusion Technologies, USA) into the jugular vein and after a two-day recovery period they were administered with LPS dissolved in saline at a dose of 1 mg kg ^−1 into the tail vein simultaneously with one of the investigated compounds. […] The doses of the compounds were selected based on the literature data or results of our previous experiments. Each control group received LPS at the same IV dose and an appropriate volume of corresponding vehicle. […] The plasma samples were collected and stored at −80°C until analysis.
as §1
PK/PD and PK/PD/DIS progression models were developed considering the mechanism of action of the investigated compounds, the mechanisms of disease progression in the case of CIA, and the subsequent stages leading to TNF-α release in the case of LPS-induced endotoxemia. Various numbers of transit compartments were tested during development of the models, and the final models were chosen based on the goodness-of-fit criteria, such as AIC, SBC, a visual inspection of the fitting, and parameter precision. Estimated values of pharmacokinetic parameters were fixed during PK/PD and PK/PD/DIS progression model fitting procedures. […] PK/PD and PK/PD/DIS progression modeling were performed in ADAPT 5 software using the weighted least squares algorithm.
Therefore, as a result of PK/PD analysis, three sets of pharmacodynamic parameters were obtained based on the data from the three individual experiments.
The applied model is a modified indirect response model ([19]) with implemented transit compartments (T1-T4) that describe the delay of the observed pharmacodynamic response. In this scheme τ is the mean transit time, kin is the time limited (from 0 to tlag) zero-order rate constant of production of a TNF-α precursor (e.g., TNF-α mRNA). Different numbers of transit compartments were tested during the model development, but the best fit was observed using four transit compartments.
All Imax values were fixed to 1.

Assay [3] relates to TNF-α release in mice model of endotoxemia. Details: method as in PMID 20389149. Particulars: mice model of endotoxemia ref [19]; cited from earlier work.
Assay [4] concerns LPS-stimulated murine macrophages (RAW263.7 cells). Details: method as in PMID 14998551. Particulars: cited from earlier work.
In another assay the test system is cAMP degradation. Details: method as in PMID 28730281. Particulars: rats, cAMP as a marker of pharmacological response ref [9]; cited from earlier work.
For another assay, the system named is PDE4. Details: method as in PMID 14998551. Particulars: ref [31]; read-out: IC50PDE4; cited from earlier work.
The subject of assay [5] is LPS-stimulated human PBMC. Also noted: method as in PMID 14998551. Particulars: LPS-stimulated human PBMC ref [31]; read-out: IC50, TNF-α production; cited from earlier work.

In the case of `CC(=O)CCCCn1c(=O)c2c(ncn2C)n(C)c1=O` [PTX, Pentoxifylline], in assay [1], the “Reduction of TNF-α levels in LPS-stimulated whole rat blood (result in words)” value was “significantly and with similar potency reduced”. In addition, in assay [2] (Rattus norvegicus, iv, read-out: IC50, concentration of compound producing 50% of Imax (inhibition of TNF-α release in vivo), Final estimate (CV%), plasma concentration, PK/PD model, Imax fixed to 1, male Wistar rats, LPS 1 mg kg^−1 IV, IV GRMS-55 20, rolipram 5, (±)-LSF and PTX 40 and 80 mg kg^−1), the IC50 was 14 µg/mL (≈ 50.3 µM). Also, the “activity in inhibiting TNF-α release in vivo, times lower than that of rolipram” value in assay [2] (ratio of IC50 values to rolipram) is on record as ~ 39 times. The “IC50 value for the inhibition of TNF-α release” value in assay [3] is 0.47 µg/mL. The “TNF-α production (result in words)” value in assay [4] (RAW263.7 cells, concentrations of 500 and 1000 μM ref [31]) is “significantly inhibited TNF-α production”. The “IC50 value for the inhibition of cAMP degradation” value with cAMP degradation is 4.48 µg/mL.

As to `C[C@@H](O)CCCCn1c(=O)c2c(ncn2C)n(C)c1=O` [R-(−)-LSF], in assay [3], the “IC50 value for the inhibition of TNF-α release” value is 1.61 µg/mL.

`COc1ccc(C(=O)Nc2c(Cl)cncc2Cl)cc1OC1CCCC1` [RP73401]: the IC50 with PDE4 is 1 nM; in assay [5] it was 3.3 nM; in assay [4] (LPS-stimulated murine macrophage cell line ref [31], read-out: IC50, TNF-α production), 2.7 nM.
